Source: patent US9598416B2, “Substituted benzothienyl-pyrrolotriazines and uses thereof in the treatment cancer” (Bayer Intellectual Property GmbH, priority 2011, dated 2017)
Counter-ions that a name gives are not always drawn. Like-named read-outs stand apart in the source and are kept apart here.

How the values were obtained:
[1] = biological target: human FGFR-3 (Homo sapiens (Human), UniProt P22607); experiment: FGFR-3 kinase assay (TR-FRET); assay type: biochemical; conditions: 10 μM ATP; compounds of the invention
[2] = biological target: human mTOR (Homo sapiens (Human), UniProt P42345); experiment: mTOR kinase assay (TR-FRET, for comparative purposes); assay type: biochemical; conditions: for inhibition at 1 µM: read-out: mTOR % inhibition @ 1 μM
Description: mTOR inhibitory activity of the compounds of the present invention was quantified employing the TR-FRET based mTOR assay as described in the following paragraphs: Recombinant fusion tagged mTOR protein [glutathione-S-transferase (GST) fused to human mTOR amino acids from 1360 to 2549], expressed in insect cells and purified by glutathione-sepharose affinity chromatography, was purchased from Invitrogen (Cat.-No. 4753) and used as enzyme. As substrate for the kinase reaction, a recombinant fusion protein of GFP and 4E-BP1 (purchased from Invitrogen, Cat.-No. PV4759) was used. Test compounds were dissolved in DMSO to generate 10 mM stock solutions. […] The resulting mixture was incubated for 1 h at 22° C. to allow formation of the complex between the phosphorylated substrate and the Tb-chelate labelled antibody. Subsequently, the amount of phosphorylated substrate was evaluated by measurement of the resonance energy transfer from the Tb-chelate to the GFP. For this, the fluorescence emissions at 495 nm and 520 nm after excitation at 340 nm was measured in an Envision 2104 multilabel reader (Perkin-Elmer). The ratio of the emissions at 520 nm and at 495 nm was taken as the measure for the amount of phosphorylated substrate.

[3] = 1 μM test compound, mean inhibition values

Chain of human mTOR (P42345 1360-2549): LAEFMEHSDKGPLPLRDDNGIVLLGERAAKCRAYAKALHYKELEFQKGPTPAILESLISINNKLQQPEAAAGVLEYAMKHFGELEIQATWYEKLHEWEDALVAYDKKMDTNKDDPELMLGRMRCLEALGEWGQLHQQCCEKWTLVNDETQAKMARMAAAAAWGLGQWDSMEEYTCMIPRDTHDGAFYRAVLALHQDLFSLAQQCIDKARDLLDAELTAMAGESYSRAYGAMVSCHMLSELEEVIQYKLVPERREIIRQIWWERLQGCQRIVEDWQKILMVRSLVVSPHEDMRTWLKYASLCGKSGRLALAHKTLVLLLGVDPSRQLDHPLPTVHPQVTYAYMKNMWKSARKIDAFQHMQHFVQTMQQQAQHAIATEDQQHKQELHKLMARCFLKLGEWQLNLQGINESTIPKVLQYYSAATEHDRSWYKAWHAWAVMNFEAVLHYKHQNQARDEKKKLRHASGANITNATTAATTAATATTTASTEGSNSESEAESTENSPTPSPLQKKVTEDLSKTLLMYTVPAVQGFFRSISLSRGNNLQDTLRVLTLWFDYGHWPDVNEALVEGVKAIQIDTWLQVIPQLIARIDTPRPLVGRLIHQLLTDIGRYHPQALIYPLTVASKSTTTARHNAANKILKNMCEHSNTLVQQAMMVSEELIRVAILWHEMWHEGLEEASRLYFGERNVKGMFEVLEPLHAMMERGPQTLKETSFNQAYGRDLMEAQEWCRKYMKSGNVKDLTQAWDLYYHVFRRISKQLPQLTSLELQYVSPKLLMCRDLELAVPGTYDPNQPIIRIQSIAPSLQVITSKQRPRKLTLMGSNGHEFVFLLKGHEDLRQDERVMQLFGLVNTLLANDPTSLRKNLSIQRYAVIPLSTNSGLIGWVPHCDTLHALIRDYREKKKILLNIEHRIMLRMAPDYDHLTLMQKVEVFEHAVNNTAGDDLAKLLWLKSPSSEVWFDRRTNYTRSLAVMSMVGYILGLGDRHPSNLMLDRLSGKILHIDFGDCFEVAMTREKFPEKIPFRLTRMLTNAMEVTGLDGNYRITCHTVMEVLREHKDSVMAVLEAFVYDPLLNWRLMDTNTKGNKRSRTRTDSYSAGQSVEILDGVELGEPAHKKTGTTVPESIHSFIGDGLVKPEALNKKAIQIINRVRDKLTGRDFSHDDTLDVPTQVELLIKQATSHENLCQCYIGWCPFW
Chain of human FGFR-3 (P22607 397-806): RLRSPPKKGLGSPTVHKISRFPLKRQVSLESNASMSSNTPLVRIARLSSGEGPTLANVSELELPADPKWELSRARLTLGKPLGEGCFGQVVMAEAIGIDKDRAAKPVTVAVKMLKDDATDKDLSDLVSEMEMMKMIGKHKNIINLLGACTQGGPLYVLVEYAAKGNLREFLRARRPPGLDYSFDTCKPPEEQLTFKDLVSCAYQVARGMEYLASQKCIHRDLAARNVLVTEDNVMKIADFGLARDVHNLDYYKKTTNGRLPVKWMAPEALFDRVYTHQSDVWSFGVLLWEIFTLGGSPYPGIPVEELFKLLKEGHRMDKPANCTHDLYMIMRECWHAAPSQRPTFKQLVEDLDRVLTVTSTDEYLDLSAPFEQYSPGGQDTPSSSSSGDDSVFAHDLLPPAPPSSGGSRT

Row | SMILES | IC50 [1] [nM] | inhibition at 1 µM [2, 3] [%] | mTOR % inhibition @ 1 μM [2, 3] | inhibition at 1 µM [2] [%]
1 | COc1cc(C)cc2cc(-c3c(CNC(C)C(N)=O)cn4ncnc(N)c34)sc12 (racemic) [Example 12, rac-N^2-{[4-Amino-5-(7-methoxy-5-methyl-1-benzothiophen-2-yl)pyrrolo[2,1-f][1,2,4]triazin-6-yl]-methyl}alaninamide] | 11.6 | 7.2 |  | 
2 | COc1cc(C)cc2cc(-c3c(CN4CCC(O)C4)cn4ncnc(N)c34)sc12 (racemic) [Example 18, rac-1-{[4-Amino-5-(7-methoxy-5-methyl-1-benzothiophen-2-yl)pyrrolo[2,1-f][1,2,4]triazin-6-yl]-methyl}pyrrolidin-3-ol dihydrochloride] | 1.3 |  | no inhib. effect detect. | 
3 | COc1cc(C)cc2cc(-c3c(CN4CCCC4C(N)=O)cn4ncnc(N)c34)sc12 (racemic) [Example 19, rac-1-{[4-Amino-5-(7-methoxy-5-methyl-1-benzothiophen-2-yl)pyrrolo[2,1-f][1,2,4]triazin-6-yl]-methyl}prolinamide dihydrochloride] | 11.2 |  |  | 1.8
4 | COc1cc(C)cc2cc(-c3c(CNCC(C)O)cn4ncnc(N)c34)sc12 (racemic) [Example 26, rac-1-({[4-Amino-5-(7-methoxy-5-methyl-1-benzothiophen-2-yl)pyrrolo[2,1-f][1,2,4]triazin-6-yl]-methyl}amino)propan-2-ol dihydrochloride] |  |  | no inhib. effect detect. | 
5 | COc1cc(C)cc2cc(-c3c(COCCCO)cn4ncnc(N)c34)sc12 [Example 1, 3-{[4-Amino-5-(7-methoxy-5-methyl-1-benzothiophen-2-yl)pyrrolo[2,1-f][1,2,4]triazin-6-yl]-methoxy}propan-1-ol hydrochloride] | 18.2 |  |  | 1.9
6 | COc1cc(C)cc2cc(-c3c(COC[C@H](C)O)cn4ncnc(N)c34)sc12 [Example 2, (2S)-1-{[4-Amino-5-(7-methoxy-5-methyl-1-benzothiophen-2-yl)pyrrolo[2,1-f][1,2,4]triazin-6-yl]-methoxy}propan-2-ol] | 2.2 | 6.1 |  | 
7 | COc1cc(C)cc2cc(-c3c(CO[C@@H](C)CO)cn4ncnc(N)c34)sc12 [Example 3, (2S)-2-{[4-Amino-5-(7-methoxy-5-methyl-1-benzothiophen-2-yl)pyrrolo[2,1-f][1,2,4]triazin-6-yl]-methoxy}propan-1-ol] | 4.2 | 2.5 |  | 
8 | CCOC(=O)COCc1cn2ncnc(N)c2c1-c1cc2cc(C)cc(OC)c2s1 [Example 4, Ethyl {[4-amino-5-(7-methoxy-5-methyl-1-benzothiophen-2-yl)pyrrolo[2,1-f][1,2,4]triazin-6-yl]-methoxy}acetate] | 49.9 | 8.4 |  | 
9 | COc1cc(C)cc2cc(-c3c(COCC(=O)O)cn4ncnc(N)c34)sc12 [Example 5, {[4-Amino-5-(7-methoxy-5-methyl-1-benzothiophen-2-yl)pyrrolo[2,1-f][1,2,4]triazin-6-yl]-methoxy}acetic acid] | 72.4 | 2.7 |  | 
10 | COc1cc(C)cc2cc(-c3c(COCC(N)=O)cn4ncnc(N)c34)sc12 [Example 6, 2-{[4-Amino-5-(7-methoxy-5-methyl-1-benzothiophen-2-yl)pyrrolo[2,1-f][1,2,4]triazin-6-yl]-methoxy}acetamide] | 4.4 | 11.3 |  | 
11 | COc1cc(C)cc2cc(-c3c(COCCO)cn4ncnc(N)c34)sc12 [Example 7, 2-{[4-Amino-5-(7-methoxy-5-methyl-1-benzothiophen-2-yl)pyrrolo[2,1-f][1,2,4]triazin-6-yl]-methoxy}ethanol hydrochloride] | 5.8 |  |  | 4.7
12 | COc1cc(C)cc2cc(-c3c(COCCN)cn4ncnc(N)c34)sc12 [Example 8, 6-[(2-Aminoethoxy)methyl]-5-(7-methoxy-5-methyl-1-benzothiophen-2-yl)pyrrolo[2,14][1,2,4]-triazin-4-amine dihydrochloride] | 0.2 | 4.7 |  | 
13 | COc1cc(C)cc2cc(-c3c(CNC(C)=O)cn4ncnc(N)c34)sc12 [Example 9, N-{[4-Amino-5-(7-methoxy-5-methyl-1-benzothiophen-2-yl)pyrrolo[2,1-f][1,2,4]triazin-6-yl]-methyl}acetamide] | 0.2 |  | no inhib. effect detect. | 
14 | COc1cc(C)cc2cc(-c3c(CO)cn4ncnc(N)c34)sc12 [Example 32, [4-Amino-5-(7-methoxy-5-methyl-1-benzothiophen-2-yl)pyrrolo[2,1-f][1,2,4]triazin-6-yl]methanol] |  |  | no inhib. effect detect. | 
15 | COc1cc(OC)c2sc(-c3c(CN4CCNC(=O)C4)cn4ncnc(N)c34)cc2c1 [Example 33, 4-{[4-Amino-5-(5,7-dimethoxy-1-benzothiophen-2-yl)pyrrolo[2,1-f][1,2,4]triazin-6-yl]methyl}-piperazin-2-one] | 1.8 |  |  | 
16 | COc1cc(C)cc2cc(-c3c(COCC#N)cn4ncnc(N)c34)sc12 [Example 40] | 9.1 |  |  | 
17 | COc1cc(C)cc2cc(-c3c(COCCCC#N)cn4ncnc(N)c34)sc12 [Example 41] | 12.7 |  |  | 
18 | COc1cc(C)cc2cc(-c3c(COCCN4CCOCC4)cn4ncnc(N)c34)sc12 [Example 42] | 30 |  |  | 
19 | COc1cc(C)cc2cc(-c3c(COCCN4CCCC4)cn4ncnc(N)c34)sc12 [Example 43] | 10.7 |  |  | 
20 | COc1cc(C)cc2cc(-c3c(COCCN4CCCCC4)cn4ncnc(N)c34)sc12 [Example 44] | 9.3 |  |  | 
21 | COc1cc(C)cc2cc(-c3c(COCCCN(C)C)cn4ncnc(N)c34)sc12 [Example 45] | 24.8 |  |  | 
22 | COc1cc(C)cc2cc(-c3c(CN4CCCC4)cn4ncnc(N)c34)sc12 [Example 47] | 1 |  |  | 
23 | COc1cc(C)cc2cc(-c3c(CNC4CC4)cn4ncnc(N)c34)sc12 [Example 48] | 3.6 |  |  | 
24 | COCCN(Cc1cn2ncnc(N)c2c1-c1cc2cc(C)cc(OC)c2s1)C(C)C [Example 49] | 14.2 |  |  | 
25 | COc1cc(C)cc2cc(-c3c(CN4CCN(C)CC4)cn4ncnc(N)c34)sc12 [Example 50] | 0.1 |  |  | 
